Results as given in PubChem BioAssay AID488931 (Broad Institute, 2010).
Active and inactive are the calls of the source.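 The calls were made as follows: active = rising protection curve whose AC50 sits at or below ten times the top dose tested for that sample; inconclusive = flat response between 30 and 70 percent, or poor fit; inactive = the rest.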

System: not listed separately
Assay: INS-1E mitochondrial potential rescue under cytokines – cell-based, JC-1 fluorescence ratio, dry powder, dose response (AID 488931)
Conditions: INS-1E cytokine-induced mitochondrial depolarization, JC-1 ratio, 48 h; at 19.5 µM (top of the series)

SMILES | protection from depolarization
C[C@@H]1CN([C@@H](C)CO)C(=O)c2cccc(NC(=O)Nc3ccccc3)c2O[C@H]1CN(C)S(=O)(=O)c1ccc(Cl)cc1 | 18.7% (inactive)
COc1ccc(S(=O)(=O)N(C)C[C@@H]2Oc3c(NS(C)(=O)=O)cccc3C(=O)N([C@@H](C)CO)C[C@H]2C)cc1 | -3.87% (inactive)
C[C@@H]1CN([C@@H](C)CO)C(=O)c2cccc(NC(=O)Nc3cccc4ccccc34)c2O[C@H]1CN(C)C(=O)Nc1ccc(C(F)(F)F)cc1 | -10.5% (inactive)
COc1ccc(S(=O)(=O)N(C)C[C@@H]2Oc3c(NC(=O)Nc4cccc5ccccc45)cccc3C(=O)N([C@H](C)CO)C[C@@H]2C)cc1 | 2.53% (inactive)
COc1ccc(S(=O)(=O)N(C)C[C@@H]2Oc3c(NC(=O)Nc4ccc(F)cc4)cccc3C(=O)N([C@@H](C)CO)C[C@H]2C)cc1 | 23.9% (inactive)
COc1ccc(NC(=O)Nc2cccc3c2O[C@@H](CN(C)S(=O)(=O)c2ccc(OC)cc2)[C@H](C)CN([C@@H](C)CO)C3=O)cc1 | -0.254% (inactive)
C[C@@H]1CN([C@@H](C)CO)C(=O)c2cccc(NC(=O)Nc3cccc4ccccc34)c2O[C@H]1CN(C)S(=O)(=O)c1ccccc1F | -1.29% (inactive)
COc1ccc(S(=O)(=O)N(C)C[C@@H]2Oc3c(NC(=O)Nc4ccc(F)cc4)cccc3C(=O)N([C@H](C)CO)C[C@H]2C)cc1 | 10.6% (inactive)
COc1ccc(S(=O)(=O)N(C)C[C@H]2Oc3c(NC(=O)Nc4cccc5ccccc45)cccc3C(=O)N([C@H](C)CO)C[C@H]2C)cc1 | 7.31% (inactive)
COc1ccc(NC(=O)N(C)C[C@@H]2Oc3c(NC(=O)Nc4cccc5ccccc45)cccc3C(=O)N([C@@H](C)CO)C[C@H]2C)cc1 | -6.82% (inactive)
Cc1ccc(S(=O)(=O)N(C)C[C@@H]2Oc3c(NC(=O)Nc4cccc5ccccc45)cccc3C(=O)N([C@@H](C)CO)C[C@H]2C)cc1 | 13.7% (inactive)
COc1ccc(S(=O)(=O)N(C)C[C@@H]2Oc3c(NC(=O)c4ccc(-c5nccs5)cc4)cccc3C(=O)N([C@@H](C)CO)C[C@H]2C)cc1 | 3.72% (inactive)
C[C@@H]1CN([C@@H](C)CO)C(=O)c2cccc(NC(=O)Nc3cccc4ccccc34)c2O[C@H]1CN(C)S(=O)(=O)c1cn(C)cn1 | -9.26% (inactive)
C[C@@H]1CN([C@@H](C)CO)C(=O)c2cccc(NC(=O)Nc3cccc4ccccc34)c2O[C@H]1CN(C)C(=O)Nc1ccc2c(c1)OCO2 | 0.627% (inactive)
COc1ccc(S(=O)(=O)N(C)C[C@@H]2Oc3c(NC(=O)C4CCOCC4)cccc3C(=O)N([C@@H](C)CO)C[C@H]2C)cc1 | 0.344% (inactive)
COc1ccc(S(=O)(=O)N(C)C[C@@H]2Oc3c(NC(=O)c4cnccn4)cccc3C(=O)N([C@@H](C)CO)C[C@H]2C)cc1 | -0.183% (inactive)
C[C@@H]1CN([C@@H](C)CO)C(=O)c2cccc(NC(=O)Nc3cccc4ccccc34)c2O[C@H]1CN(C)C(=O)NC1CCCCC1 | -5.64% (inactive)
COc1ccccc1S(=O)(=O)N(C)C[C@@H]1Oc2c(NC(=O)Nc3cccc4ccccc34)cccc2C(=O)N([C@@H](C)CO)C[C@H]1C | 4.59% (inactive)
C[C@@H]1CN([C@@H](C)CO)C(=O)c2cccc(NC(=O)Nc3cccc4ccccc34)c2O[C@H]1CN(C)S(=O)(=O)c1cccc(F)c1 | -3.75% (inactive)
C[C@@H]1CN([C@@H](C)CO)C(=O)c2cccc(NC(=O)Nc3cccc4ccccc34)c2O[C@H]1CN(C)CC1CC1 | 9.67% (inactive)
C[C@@H]1CN([C@@H](C)CO)C(=O)c2cccc(NC(=O)Nc3cccc4ccccc34)c2O[C@H]1CN(C)S(=O)(=O)c1cccs1 | -8.53% (inactive)
COc1ccc(S(=O)(=O)N(C)C[C@@H]2Oc3ccc(NC(=O)Nc4cccc5ccccc45)cc3C(=O)N([C@@H](C)CO)C[C@H]2C)cc1 | -7.17% (inactive)
COc1ccc(S(=O)(=O)N(C)C[C@@H]2Oc3c(NS(=O)(=O)c4ccc(Cl)cc4)cccc3C(=O)N([C@@H](C)CO)C[C@H]2C)cc1 | 3.44% (inactive)
COc1ccc(S(=O)(=O)N(C)C[C@@H]2Oc3c(NC(=O)Nc4ccc(C(F)(F)F)cc4)cccc3C(=O)N([C@@H](C)CO)C[C@H]2C)cc1 | 12.6% (inactive)
C[C@@H]1CN([C@H](C)CO)C(=O)c2cccc(NC(=O)Nc3cccc4ccccc34)c2O[C@H]1CN(C)S(=O)(=O)c1ccc(Cl)cc1 | 20.7% (inactive)
Cc1noc(C)c1NC(=O)N(C)C[C@@H]1Oc2c(NC(=O)Nc3cccc4ccccc34)cccc2C(=O)N([C@@H](C)CO)C[C@H]1C | 10.5% (inactive)
COc1ccc(S(=O)(=O)N(C)C[C@@H]2Oc3c(NS(=O)(=O)c4ccccc4)cccc3C(=O)N([C@@H](C)CO)C[C@H]2C)cc1 | 7.15% (inactive)
C[C@H]1CN([C@@H](C)CO)C(=O)c2cccc(NC(=O)NC3CCCCC3)c2O[C@@H]1CN(C)S(C)(=O)=O | 4.62% (inactive)

SMILES | protection from depolarization
C[C@@H]1CN([C@@H](C)CO)C(=O)c2cccc(NC(=O)Nc3cccc4ccccc34)c2O[C@H]1CN(C)S(=O)(=O)c1ccc2c(c1)OCO2 | 14.5% (inactive)
C[C@@H]1CN([C@@H](C)CO)C(=O)c2cccc(NC(=O)Nc3cccc4ccccc34)c2O[C@H]1CN(C)S(=O)(=O)c1ccc2c(c1)oc(=O)n2C | 23.7% (inactive)
C[C@@H]1CN([C@@H](C)CO)C(=O)c2cccc(NC(=O)Nc3cccc4ccccc34)c2O[C@H]1CN(C)C(=O)Nc1ccccc1 | -8.43% (inactive)
COc1ccc(S(=O)(=O)N(C)C[C@@H]2Oc3c(NC(=O)Nc4cccc5ccccc45)cccc3C(=O)N([C@@H](C)CO)C[C@H]2C)c(OC)c1 | 9.11% (inactive)
C[C@@H]1CN([C@@H](C)CO)C(=O)c2cccc(NC(=O)Nc3cccc4ccccc34)c2O[C@H]1CN(C)S(=O)(=O)c1ccc(F)cc1 | 6.22% (inactive)
COc1ccc(S(=O)(=O)N(C)C[C@@H]2Oc3c(NC(=O)c4cc(C)nn4C)cccc3C(=O)N([C@@H](C)CO)C[C@H]2C)cc1 | -6.67% (inactive)
COc1ccc(S(=O)(=O)N(C)C[C@@H]2Oc3c(NC(=O)c4nc5ccccc5s4)cccc3C(=O)N([C@@H](C)CO)C[C@H]2C)cc1 | -8.98% (inactive)
CNC[C@@H]1Oc2c(NC(=O)Nc3cccc4ccccc34)cccc2C(=O)N([C@@H](C)CO)C[C@H]1C | 4.81% (inactive)
COc1ccc(S(=O)(=O)N(C)C[C@@H]2Oc3c(NS(=O)(=O)c4ccc(F)cc4)cccc3C(=O)N([C@@H](C)CO)C[C@H]2C)cc1 | 2.07% (inactive)
C[C@@H]1CN([C@@H](C)CO)C(=O)c2cccc(NC(=O)Nc3cccc4ccccc34)c2O[C@H]1CN(C)S(=O)(=O)c1ccc(OC(F)(F)F)cc1 | -17.1% (inactive)
COc1ccc(S(=O)(=O)N(C)C[C@@H]2Oc3c(NS(=O)(=O)c4cn(C)cn4)cccc3C(=O)N([C@@H](C)CO)C[C@H]2C)cc1 | 1.64% (inactive)
Cc1ccc(S(=O)(=O)N(C)C[C@@H]2Oc3c(NC(=O)Nc4ccc(F)cc4)cccc3C(=O)N([C@H](C)CO)C[C@H]2C)cc1 | 15.8% (inactive)
Cc1ccc(S(=O)(=O)N(C)C[C@H]2Oc3c(NC(=O)Nc4cccc5ccccc45)cccc3C(=O)N([C@@H](C)CO)C[C@@H]2C)cc1 | -8.26% (inactive)
COc1ccc(S(=O)(=O)N(C)C[C@@H]2Oc3c(NC(=O)NC4CCCCC4)cccc3C(=O)N([C@@H](C)CO)C[C@H]2C)cc1 | 16.4% (inactive)
C[C@@H]1CN([C@@H](C)CO)C(=O)c2cccc(NC(=O)Nc3cccc4ccccc34)c2O[C@H]1CN(C)C(=O)Nc1ccc(F)cc1 | -0.192% (inactive)
COc1ccc(S(=O)(=O)N(C)C[C@@H]2Oc3c(NC(=O)Nc4cccc5ccccc45)cccc3C(=O)N([C@@H](C)CO)C[C@H]2C)cc1 | 10.7% (inactive)
C[C@@H]1CN([C@@H](C)CO)C(=O)c2cccc(NC(=O)Nc3ccccc3)c2O[C@H]1CN(C)S(=O)(=O)c1ccc(F)cc1 | 11.5% (inactive)
C[C@@H]1CN([C@H](C)CO)C(=O)c2cccc(NC(=O)Nc3ccccc3)c2O[C@H]1CN(C)S(=O)(=O)c1ccc(Cl)cc1 | 27.7% (inactive)
C[C@@H]1CN([C@@H](C)CO)C(=O)c2cccc(NC(=O)Nc3cccc4ccccc34)c2O[C@H]1CN(C)S(=O)(=O)c1ccccc1 | 12.8% (inactive)
C[C@@H]1CN([C@@H](C)CO)C(=O)c2cccc(NC(=O)Nc3cccc4ccccc34)c2O[C@H]1CN(C)S(=O)(=O)c1ccc2c(c1)OCCCO2 | 5.1% (inactive)
C[C@@H]1CN([C@@H](C)CO)C(=O)c2cccc(NS(=O)(=O)c3ccccc3)c2O[C@H]1CN(C)Cc1ccc(C(F)(F)F)cc1 | -0.0726% (inactive)
C[C@@H]1CN([C@@H](C)CO)C(=O)c2cccc(NC(=O)Nc3cccc4ccccc34)c2O[C@H]1CN(C)S(=O)(=O)c1ccc2c(c1)OCCO2 | 19.2% (inactive)
COc1ccc(S(=O)(=O)N(C)C[C@@H]2Oc3c(cccc3N(C)C)C(=O)N([C@@H](C)CO)C[C@H]2C)cc1 | -3.81% (inactive)
COc1ccc(S(=O)(=O)N(C)C[C@@H]2Oc3c(NS(=O)(=O)c4ccc(C)cc4)cccc3C(=O)N([C@@H](C)CO)C[C@H]2C)cc1 | 2.95% (inactive)
COc1ccc(S(=O)(=O)N(C)C[C@@H]2Oc3c(NC(=O)c4cccc5ccccc45)cccc3C(=O)N([C@@H](C)CO)C[C@H]2C)cc1 | 5.96% (inactive)
COc1ccc(S(=O)(=O)N(C)C[C@@H]2Oc3c(NC(=O)C4CC4)cccc3C(=O)N([C@@H](C)CO)C[C@H]2C)cc1 | 0.699% (inactive)
C[C@@H]1CN([C@H](C)CO)C(=O)c2cccc(NC(=O)Nc3ccccc3)c2O[C@H]1CN(C)S(=O)(=O)c1ccc(F)cc1 | 3.73% (inactive)

System: INS-1E cytokine-induced mitochondrial depolarization, JC-1 ratio, 48 h
Assay: as above
Conditions: not given

SMILES | AC50
COc1ccc(S(=O)(=O)N(C)C[C@@H]2Oc3c(NC(=O)Nc4ccccc4)cccc3C(=O)N([C@H](C)CO)C[C@H]2C)cc1 | > 19.5 µM (inactive)
